Test results from patent US12421225B2, “Heteroaromatic amide derivative and medicament containing the same” (KAKEN PHARMACEUTICAL CO., LTD., priority 2018, dated 2025).

Tests used:
human Nav1.7 = human Nav1.7 (Homo sapiens (Human), UniProt Q15858); experiment: Human Nav1.7 inhibitory activity evaluation (automated patch clamp QPatch16X, HEK293A cells stably expressing human Nav1.7 and human Navβ1); type: cell-based
Summary of the method: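 IC50 calculated from the concentration-response of inward current evoked by the second −10 mV, 50 ms depolarisation, which follows a 15 s conditioning step at roughly 30-40% inactivation and a 100 ms −120 mV interval. Cells: HEK293A expressing human Nav1.7/Navβ1, automated patch clamp, room temperature, 0.1% DMSO final.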

human Nav1.5 = human Nav1.5 (Homo sapiens (Human), UniProt Q14524); experiment: Human Nav1.5 inhibitory activity evaluation (automated patch clamp QPatch16X, HEK293 cells stably expressing human Nav1.5); type: cell-based
Summary of the method: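 IC50 derived from concentration-response of inward current at the 20th of 20 action-potential-mimicking pulses (holding −80 mV, leak corrected with −100 mV step). HEK293 cells stably expressing human Nav1.5, room temperature, extracellular pH 7.4, intracellular CsF-based pH 7.3, 0.1% DMSO.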

[1] = HEK293A cells stably expressing human Nav1.7 and human Navβ1, automated patch clamp QPatch16X
[2] = HEK293 cells stably expressing human Nav1.5, automated patch clamp QPatch16X
[3] = human Nav1.7, automated patch clamp
[4] = human Nav1.5, automated patch clamp

human Nav1.5, sequence (Q14524 whole entry): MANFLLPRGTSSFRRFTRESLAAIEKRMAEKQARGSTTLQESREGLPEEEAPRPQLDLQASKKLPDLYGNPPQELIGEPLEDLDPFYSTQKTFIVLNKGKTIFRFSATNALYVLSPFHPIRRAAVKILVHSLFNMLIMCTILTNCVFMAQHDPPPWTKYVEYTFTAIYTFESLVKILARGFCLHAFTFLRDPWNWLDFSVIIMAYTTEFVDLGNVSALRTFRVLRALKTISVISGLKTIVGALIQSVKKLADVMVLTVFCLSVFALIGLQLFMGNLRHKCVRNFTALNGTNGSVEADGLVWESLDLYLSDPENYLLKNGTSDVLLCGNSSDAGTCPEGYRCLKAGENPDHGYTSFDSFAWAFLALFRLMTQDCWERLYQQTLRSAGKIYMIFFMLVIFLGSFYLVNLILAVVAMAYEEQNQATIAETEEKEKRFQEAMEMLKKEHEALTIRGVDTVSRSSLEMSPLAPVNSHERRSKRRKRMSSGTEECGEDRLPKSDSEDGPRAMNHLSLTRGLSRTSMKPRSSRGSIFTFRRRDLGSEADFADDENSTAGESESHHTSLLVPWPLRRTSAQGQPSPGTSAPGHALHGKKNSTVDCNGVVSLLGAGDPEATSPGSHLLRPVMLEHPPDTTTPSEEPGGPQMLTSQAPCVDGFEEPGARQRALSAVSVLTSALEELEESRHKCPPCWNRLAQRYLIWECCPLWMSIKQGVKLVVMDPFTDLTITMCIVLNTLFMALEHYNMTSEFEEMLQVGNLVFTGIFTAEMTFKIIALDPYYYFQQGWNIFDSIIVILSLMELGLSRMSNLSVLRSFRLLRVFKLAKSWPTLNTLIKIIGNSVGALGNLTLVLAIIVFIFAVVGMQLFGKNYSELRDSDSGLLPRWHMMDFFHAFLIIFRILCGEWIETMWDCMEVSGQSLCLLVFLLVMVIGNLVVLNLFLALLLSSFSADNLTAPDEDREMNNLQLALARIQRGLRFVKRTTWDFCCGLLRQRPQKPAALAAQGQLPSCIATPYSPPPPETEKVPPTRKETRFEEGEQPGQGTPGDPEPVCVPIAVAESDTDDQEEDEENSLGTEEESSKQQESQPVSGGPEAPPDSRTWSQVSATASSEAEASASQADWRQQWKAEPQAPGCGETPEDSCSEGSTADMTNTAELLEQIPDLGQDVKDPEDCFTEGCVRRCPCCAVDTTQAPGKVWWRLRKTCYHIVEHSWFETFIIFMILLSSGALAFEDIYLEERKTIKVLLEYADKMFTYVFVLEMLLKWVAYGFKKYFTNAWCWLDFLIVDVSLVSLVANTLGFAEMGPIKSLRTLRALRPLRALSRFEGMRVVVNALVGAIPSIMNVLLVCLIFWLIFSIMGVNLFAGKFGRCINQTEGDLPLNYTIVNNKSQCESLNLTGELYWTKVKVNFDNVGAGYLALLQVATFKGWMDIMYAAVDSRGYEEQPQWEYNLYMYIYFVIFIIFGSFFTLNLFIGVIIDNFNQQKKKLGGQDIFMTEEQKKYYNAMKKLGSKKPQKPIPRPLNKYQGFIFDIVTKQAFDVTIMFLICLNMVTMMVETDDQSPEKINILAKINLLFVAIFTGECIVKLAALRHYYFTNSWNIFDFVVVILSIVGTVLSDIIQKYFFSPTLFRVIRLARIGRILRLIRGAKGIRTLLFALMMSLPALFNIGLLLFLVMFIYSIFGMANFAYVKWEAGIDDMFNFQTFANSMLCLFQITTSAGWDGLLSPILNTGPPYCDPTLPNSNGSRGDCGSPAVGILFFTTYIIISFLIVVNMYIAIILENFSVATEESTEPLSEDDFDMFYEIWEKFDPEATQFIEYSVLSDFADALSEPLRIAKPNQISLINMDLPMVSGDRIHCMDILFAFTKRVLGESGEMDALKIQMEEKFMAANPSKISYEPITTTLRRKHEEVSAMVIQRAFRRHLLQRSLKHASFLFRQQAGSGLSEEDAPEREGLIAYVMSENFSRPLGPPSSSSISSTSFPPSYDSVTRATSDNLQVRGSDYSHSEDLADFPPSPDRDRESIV
human Nav1.7, sequence (Q15858 whole entry): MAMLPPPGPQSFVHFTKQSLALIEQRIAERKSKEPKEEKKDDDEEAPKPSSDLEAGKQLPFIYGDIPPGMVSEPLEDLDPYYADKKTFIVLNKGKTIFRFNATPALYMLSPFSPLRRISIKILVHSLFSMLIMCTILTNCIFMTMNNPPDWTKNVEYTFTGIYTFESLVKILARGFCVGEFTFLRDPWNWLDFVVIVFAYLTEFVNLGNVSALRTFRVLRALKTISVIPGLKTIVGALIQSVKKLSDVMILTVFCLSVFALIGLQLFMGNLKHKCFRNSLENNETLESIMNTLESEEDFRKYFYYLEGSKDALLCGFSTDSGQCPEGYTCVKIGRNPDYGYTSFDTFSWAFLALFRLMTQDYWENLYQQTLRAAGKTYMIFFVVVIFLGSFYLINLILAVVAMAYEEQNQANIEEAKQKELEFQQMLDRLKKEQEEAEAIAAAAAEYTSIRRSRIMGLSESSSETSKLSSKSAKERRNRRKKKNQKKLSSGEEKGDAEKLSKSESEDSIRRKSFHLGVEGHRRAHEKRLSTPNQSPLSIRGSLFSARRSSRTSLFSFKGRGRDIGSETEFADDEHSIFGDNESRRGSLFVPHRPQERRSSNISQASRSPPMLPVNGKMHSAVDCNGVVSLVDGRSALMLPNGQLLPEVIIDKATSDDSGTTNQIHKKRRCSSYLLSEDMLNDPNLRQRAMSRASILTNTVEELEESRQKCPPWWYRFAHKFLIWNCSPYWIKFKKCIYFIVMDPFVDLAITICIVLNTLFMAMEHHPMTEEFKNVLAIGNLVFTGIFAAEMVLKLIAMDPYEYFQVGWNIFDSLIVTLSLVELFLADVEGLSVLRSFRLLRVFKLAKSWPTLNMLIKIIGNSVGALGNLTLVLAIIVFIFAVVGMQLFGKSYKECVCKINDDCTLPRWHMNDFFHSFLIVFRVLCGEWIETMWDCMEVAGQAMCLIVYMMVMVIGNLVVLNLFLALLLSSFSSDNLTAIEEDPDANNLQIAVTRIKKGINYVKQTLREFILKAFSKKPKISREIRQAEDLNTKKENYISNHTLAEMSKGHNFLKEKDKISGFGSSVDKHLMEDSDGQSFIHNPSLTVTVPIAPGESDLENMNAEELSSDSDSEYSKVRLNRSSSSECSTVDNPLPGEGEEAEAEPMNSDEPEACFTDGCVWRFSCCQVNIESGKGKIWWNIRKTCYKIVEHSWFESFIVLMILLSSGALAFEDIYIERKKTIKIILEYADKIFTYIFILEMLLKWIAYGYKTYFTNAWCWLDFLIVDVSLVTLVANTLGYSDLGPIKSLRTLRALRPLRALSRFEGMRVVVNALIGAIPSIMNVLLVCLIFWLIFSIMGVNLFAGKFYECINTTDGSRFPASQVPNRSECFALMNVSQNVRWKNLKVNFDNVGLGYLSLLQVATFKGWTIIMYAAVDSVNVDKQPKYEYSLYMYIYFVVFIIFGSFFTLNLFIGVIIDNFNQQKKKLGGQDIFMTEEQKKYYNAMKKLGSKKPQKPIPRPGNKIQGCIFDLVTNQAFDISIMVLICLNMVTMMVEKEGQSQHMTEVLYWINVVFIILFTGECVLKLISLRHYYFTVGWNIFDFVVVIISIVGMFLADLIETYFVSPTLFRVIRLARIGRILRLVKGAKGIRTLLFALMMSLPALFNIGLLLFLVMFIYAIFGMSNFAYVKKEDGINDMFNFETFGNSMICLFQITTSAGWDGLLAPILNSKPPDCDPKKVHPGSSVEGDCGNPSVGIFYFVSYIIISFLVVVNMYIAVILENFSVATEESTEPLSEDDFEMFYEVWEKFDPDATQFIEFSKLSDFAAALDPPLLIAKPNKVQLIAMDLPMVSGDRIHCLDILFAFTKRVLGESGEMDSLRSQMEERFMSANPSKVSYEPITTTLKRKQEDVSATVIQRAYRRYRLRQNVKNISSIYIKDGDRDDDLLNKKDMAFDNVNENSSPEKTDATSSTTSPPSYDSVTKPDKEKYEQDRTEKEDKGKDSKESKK
human Nav1.7, sequence (Q07699 19-218 partner): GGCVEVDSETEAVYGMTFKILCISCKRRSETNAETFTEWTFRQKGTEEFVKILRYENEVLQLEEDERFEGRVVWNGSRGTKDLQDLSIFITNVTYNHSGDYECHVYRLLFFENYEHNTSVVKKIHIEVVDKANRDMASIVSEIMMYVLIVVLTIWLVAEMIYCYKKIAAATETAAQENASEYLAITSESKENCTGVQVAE

Compound | IC50 (human Nav1.7; [1]) [nM] | IC50 (human Nav1.5; [2]) [nM] | IC50 (human Nav1.7; [3]) [nM] | IC50 (human Nav1.5; [4]) [nM]
CCC1CCn2nc(C(=O)N[C@H]3COc4ccc(Cl)cc4C3)cc2O1 (stereo partly drawn) [Example 90] | < 1000 | 1000 to 3000 | – | –
CCC1CCn2nc(C(=O)N[C@H]3COc4ccc(C#N)cc4C3)cc2O1 (stereo partly drawn) [Example 91] | < 10000 | ≥ 3000 | – | –
CCCC1CCn2nc(C(=O)N[C@H]3COc4ccc(C#N)cc4C3)cc2O1 (stereo partly drawn) [Example 94] | < 1000 | 1000 to 3000 | – | –
N#Cc1ccc2c(c1)C[C@@H](NC(=O)c1cc3n(n1)CCC(CC1CC1)O3)CO2 (stereo partly drawn) [Example 96] | < 1000 | 1000 to 3000 | – | –
CCCOCC1CCn2nc(C(=O)N[C@H]3COc4ccc(C#N)cc4C3)cc2O1 (stereo partly drawn) [Example 100, N—((R)-6-cyanochroman-3-yl)-5-(propoxymethyl)-6,7-dihydro-5H-pyrazolo[5,1-b][1,3]oxazine-2-carboxamide] | < 10000 | ≥ 3000 | – | –
O=C(N[C@H]1COc2ccc(Cl)cc2C1)c1cc2n(n1)CCC(COCc1cccc(C(F)(F)F)n1)O2 (stereo partly drawn) [Example 105] | < 1000 | < 1000 | – | –
O=C(N[C@H]1COc2ccc(CC(F)F)cc2C1)c1cc2n(n1)CCC(COCC1CC1)O2 (stereo partly drawn) [Example 108] | < 1000 | 1000 to 3000 | – | –
O=C(N[C@H]1COc2ccc(-c3ccccn3)cc2C1)c1cc2n(n1)CCC(COCC1CC1)O2 (stereo partly drawn) [Example 110] | < 1000 | ≥ 3000 | – | –
CC1(COCC2CCn3nc(C(=O)N[C@H]4COc5ccc(C#N)cc5C4)cc3O2)CC1 (stereo partly drawn) [Example 112] | < 1000 | ≥ 3000 | – | –
O=C(N[C@H]1COc2ccc(Cl)cc2C1)c1cc2n(n1)CCC(COc1ccccn1)O2 (stereo partly drawn) [Example 117] | < 1000 | < 1000 | – | –
N#Cc1ccc2c(c1)C[C@@H](NC(=O)c1cc3n(n1)CCC(COc1ccccc1)O3)CO2 (stereo partly drawn) [Example 118] | < 1000 | < 1000 | – | –
O=C(N[C@H]1COc2ccc(Cl)cc2C1)c1cc2n(n1)CCC(CN1CCOCC1)O2 (stereo partly drawn) [Example 122] | < 10000 | ≥ 3000 | – | –
CCOCC1CCn2nc(C(=O)N[C@H]3COc4ccc(-c5ccccn5)cc4C3)cc2O1 (stereo partly drawn) [Example 123] | < 10000 | ≥ 3000 | – | –
CCOCC1CCn2nc(C(=O)N[C@H]3COc4ccc(-c5ccc(C#N)nc5)cc4C3)cc2O1 (stereo partly drawn) [Example 125] | < 10000 | ≥ 3000 | – | –
O=C(N[C@H]1COc2ccc(CC(F)F)cc2C1)c1cc2n(n1)CCC(COCC(F)(F)F)O2 (stereo partly drawn) [Example 126] | < 1000 | 1000 to 3000 | – | –
O=C(N[C@H]1COc2ccc(-c3ccccn3)cc2C1)c1cc2n(n1)CCC(COCC(F)(F)F)O2 (stereo partly drawn) [Example 130] | < 10000 | ≥ 3000 | – | –
O=C(N[C@H]1COc2ccc(CC(F)F)cc2C1)c1cc2n(n1)CCC(COC(F)(F)F)O2 (stereo partly drawn) [Example 135] | < 1000 | 1000 to 3000 | – | –
O=C(N[C@H]1COc2ccc(CC(F)F)cc2C1)c1cc2n(n1)CCC(COC(F)F)O2 (stereo partly drawn) [Example 137] | < 1000 | ≥ 3000 | – | –
O=C(N[C@H]1COc2ccc(COCC(F)(F)F)cc2C1)c1cc2n(n1)CCC(COC(F)F)O2 (stereo partly drawn) [Example 139] | < 1000 | ≥ 3000 | – | –

Compound | IC50 (human Nav1.7; [1]) [nM] | IC50 (human Nav1.5; [2]) [nM] | IC50 (human Nav1.7; [3]) [nM] | IC50 (human Nav1.5; [4]) [nM]
O=C(N[C@H]1COc2ccc(CCOC(F)F)cc2C1)c1cc2n(n1)CCC(COC(F)F)O2 (stereo partly drawn) [Example 141] | – | – | < 1000 | ≥ 3000
N#Cc1ccc2c(c1)C[C@@H](NC(=O)c1cc3n(n1)CCC(CCOC(F)(F)F)O3)CO2 (stereo partly drawn) [Example 143] | – | – | < 1000 | ≥ 3000
N#Cc1ccc2c(c1)C[C@@H](NC(=O)c1cc3n(n1)CCC(CCOC(F)F)O3)CO2 (stereo partly drawn) [Example 145] | – | – | < 1000 | ≥ 3000
O=C(N[C@H]1COc2ccc(CC(F)F)cc2C1)c1cc2n(n1)CCC(CCOC(F)F)O2 (stereo partly drawn) [Example 147] | – | – | < 1000 | ≥ 3000
O=C(N[C@H]1COc2ccc(COCC(F)(F)F)cc2C1)c1cc2n(n1)CCC(CCOC(F)F)O2 (stereo partly drawn) [Example 149] | – | – | < 1000 | 1000 to 3000
O=C(N[C@H]1COc2ccc(Cl)cc2C1)c1cc2n(n1)CCC(CNCC(F)(F)F)O2 (stereo partly drawn) [Example 151] | – | – | < 1000 | 1000 to 3000
N#Cc1ccc2c(c1)C[C@@H](NC(=O)c1cc3n(n1)CCC(CSC(F)(F)F)O3)CO2 (stereo partly drawn) [Example 155] | – | – | < 10000 | ≥ 3000
O=C(N[C@H]1COc2ccc(Cl)cc2C1)c1cc2n(n1)CCC(C(F)F)O2 (stereo partly drawn) [Example 157] | – | – | < 10000 | ≥ 3000
O=C(N[C@H]1COc2ccc(Br)cc2C1)c1cc2n(n1)CCC(C(F)F)O2 (stereo partly drawn) [Example 159, N—((R)-6-bromochroman-3-yl)-5-(difluoromethyl)-6,7-dihydro-5H-pyrazolo[5,1-b][1,3]oxazine-2-carboxamide] | – | – | < 1000 | ≥ 3000
O=C(N[C@H]1COc2ccc(COCC(F)(F)F)cc2C1)c1cc2n(n1)CCC(C(F)F)O2 (stereo partly drawn) [Example 162] | – | – | < 1000 | ≥ 3000
O=C(N[C@H]1COc2ccc(CCOC(F)F)cc2C1)c1cc2n(n1)CCC(C(F)F)O2 (stereo partly drawn) [Example 164] | – | – | < 1000 | ≥ 3000
CC(F)(F)C1CCn2nc(C(=O)N[C@H]3COc4ccc(Cl)cc4C3)cc2O1 (stereo partly drawn) [Example 167] | – | – | < 1000 | 1000 to 3000
CCC(O)(CC)C1CCn2nc(C(=O)N[C@H]3COc4ccc(Cl)cc4C3)cc2O1 (stereo partly drawn) [Example 168] | – | – | < 10000 | ≥ 3000
O=C(N[C@H]1COc2ccc(Cl)cc2C1)c1cc2n(n1)CCC(C(F)(F)F)O2 (stereo partly drawn) [Example 169] | – | – | < 1000 | 1000 to 3000
O=C(N[C@H]1COc2ccc(Br)cc2C1)c1cc2n(n1)CCC(C(F)(F)F)O2 (stereo partly drawn) [Example 171] | – | – | < 1000 | 1000 to 3000
O=C(N[C@H]1COc2ccc(CC(F)F)cc2C1)c1cc2n(n1)CCC(C(F)(F)F)O2 (stereo partly drawn) [Example 172] | – | – | < 10000 | ≥ 3000
N#Cc1ccc(-c2ccc3c(c2)C[C@@H](NC(=O)c2cc4n(n2)CCC(C(F)(F)F)O4)CO3)cn1 (stereo partly drawn) [Example 174] | – | – | < 1000 | ≥ 3000
Cc1ccc(-c2ccc3c(c2)C[C@@H](NC(=O)c2cc4n(n2)CCC(C(F)(F)F)O4)CO3)cn1 (stereo partly drawn) [Example 175] | – | – | < 10000 | ≥ 3000
CC1(C)CCn2nc(C(=O)N[C@H]3COc4ccc(Cl)cc4C3)cc2O1 [Example 177] | – | – | < 1000 | 1000 to 3000

Compound | IC50 (human Nav1.7; [1]) [nM] | IC50 (human Nav1.5; [2]) [nM] | IC50 (human Nav1.7; [3]) [nM] | IC50 (human Nav1.5; [4]) [nM]
CC1(C)CCn2nc(C(=O)N[C@H]3COc4ccc(C#N)cc4C3)cc2O1 [Example 178] | – | – | < 10000 | ≥ 3000
O=C(N[C@H]1COc2ccccc2C1)c1cc2n(n1)CC(c1ccccc1)O2 (stereo partly drawn) [Example 181] | – | – | < 1000 | ≥ 3000
O=C(N[C@H]1COc2ccc(COCC(F)(F)F)cc2C1)c1cc2n(n1)CC(COCC1CC1)O2 (stereo partly drawn) [Example 185] | – | – | < 1000 | ≥ 3000
O=C(N[C@H]1COc2ccc(COCC(F)(F)F)cc2C1)c1cc2n(n1)CC(COCC(F)(F)F)O2 (stereo partly drawn) [Example 187, 2-((2,2,2-trifluoroethoxy)methyl)-N—((R)-6-((2,2,2-trifluoroethoxy)methyl)chroman-3-yl)-2,3-dihydropyrazolo[5,1-b]oxazole-6-carboxamide] | – | – | < 1000 | ≥ 3000
O=C(N[C@H]1COc2ccc(CCOC(F)F)cc2C1)c1cc2n(n1)CC(COCC(F)(F)F)O2 (stereo partly drawn) [Example 189] | – | – | < 1000 | ≥ 3000
O=C(N[C@H]1COc2ccc(COCC(F)(F)F)cc2C1)c1cc2n(n1)CC(COC(F)(F)F)O2 (stereo partly drawn) [Example 195] | – | – | < 1000 | ≥ 3000
O=C(N[C@H]1COc2ccc(CC(F)F)cc2C1)c1cc2n(n1)CC(COC(F)(F)F)O2 (stereo partly drawn) [Example 197] | – | – | < 1000 | ≥ 3000
N#Cc1ccc2c(c1)C[C@@H](NC(=O)c1cc3n(n1)CC(CSCC(F)(F)F)O3)CO2 (stereo partly drawn) [Example 199] | – | – | < 10000 | ≥ 3000
N#Cc1ccc2c(c1)C[C@@H](NC(=O)c1cc3n(n1)CC(CCOCC1CC1)O3)CO2 (stereo partly drawn) [Example 201, N—((R)-6-cyanochroman-3-yl)-2-(2-(cyclopropylmethoxy)ethyl)-2,3-dihydropyrazolo[5,1-b]oxazole-6-carboxamide] | – | – | < 1000 | 1000 to 3000
Cn1ccc(-c2ccc3c(c2)C[C@@H](NC(=O)c2cc4n(n2)CC(CCOCC(F)(F)F)O4)CO3)n1 (stereo partly drawn) [Example 205] | – | – | < 10000 | ≥ 3000
N#Cc1ccc2c(c1)C[C@@H](NC(=O)c1cc3n(n1)CC(CCOC(F)(F)F)O3)CO2 (stereo partly drawn) [Example 208] | – | – | < 1000 | < 1000
Cn1ccc(-c2ccc3c(c2)C[C@@H](NC(=O)c2cc4n(n2)CC(CCOC(F)(F)F)O4)CO3)n1 (stereo partly drawn) [Example 212] | – | – | < 1000 | ≥ 3000
O=C(N[C@H]1COc2ccc(COCC(F)(F)F)cc2C1)c1cc2n(n1)CC(CCOC(F)F)O2 (stereo partly drawn) [Example 214] | – | – | < 1000 | 1000 to 3000
O=C(N[C@H]1COc2ccc(CC(F)F)cc2C1)c1cc2n(n1)CC(CCOC(F)F)O2 (stereo partly drawn) [Example 218] | – | – | < 1000 | ≥ 3000
Cn1cc(-c2ccc3c(c2)C[C@@H](NC(=O)c2cc4n(n2)CC(CCOC(F)F)O4)CO3)cn1 (stereo partly drawn) [Example 220] | – | – | < 10000 | 1000 to 3000
O=C(N[C@H]1COc2ccc(-c3cnccn3)cc2C1)c1cc2n(n1)CC(CCOC(F)F)O2 (stereo partly drawn) [Example 222] | – | – | < 1000 | ≥ 3000
O=C(N[C@H]1COc2ccc(Cl)cc2C1)c1cc2n(n1)CC(CCNCC(F)(F)F)O2 (stereo partly drawn) [Example 225] | – | – | < 1000 | 1000 to 3000
Cc1ccc2c(c1)C[C@@H](NC(=O)c1cc3n(n1)CC(CCNCC(F)(F)F)O3)CO2 (stereo partly drawn) [Example 227] | – | – | < 1000 | 1000 to 3000
O=C(N[C@H]1COc2ccc(C(F)(F)F)cc2C1)c1cc2n(n1)CC(CCNCC(F)(F)F)O2 (stereo partly drawn) [Example 229] | – | – | < 1000 | 1000 to 3000
